Target: T1, CFTR (Homo sapiens, UniProt P13569, DEL508-508)
T1 construct: Primary CF airway epithelial cells were obtained from the UNC Cystic Fibrosis Tissue Procurement and Cell Culture Core; host or cells: primary CF airway epithelial cells, differentiated at the air-liquid interface
Assay: Equivalent current assay in primary CF airway epithelial cells (NAUC, combination with 1st site corrector FDL169 or VX-809)
Format: cell-based
Settings: 37° C., 24 h; for Nauc @ 10 μM: test compound 10 μM in combination with 1st site corrector VX-809 (3 μM)
Description: Primary CF airway epithelial cells were obtained from the UNC Cystic Fibrosis Tissue Procurement and Cell Culture Core. The cells are grown at 37° C. in a Heracell 150i incubator using growth media (BEGM, Fischer). […] Two days before the Ussing assay the mucus on the apical surface of the cells was aspirated after incubating with 200 μL of differentiation media for at least thirty (30) minutes. One day before the Ussing assay test compounds were added to the basolateral surface of the cells at various test concentrations dissolved in DMSO. Duplicate wells were prepared giving a n=3 or n=4 protocol.
Cells were treated for 24 hours with various combinations and concentrations of the test articles, reference standard (3 μM VX809 or 3 μM FDL169, positive control). Compounds stock solutions were prepared in DMSO and diluted 1/1000 into ALI media to their final assay concentration. Cells were treated with combination solutions (2 mL of each dilution) and incubated at 37° C. for 24 h.
For the equivalent current assay, cells on four Transwell (24-well) plates were treated. Each Transwell plate was filled with 200 μl of HBS on the apical surface and 2 ml on the basolateral surface. Plates were placed horizontally in a heated mount at 37° C., and equilibrated for several minutes. Resting current was measured for 15 min and then blocked by the apical addition of 5 μM benzamil. After 20 min, 10 μM forskolin and 1 μM VX770 were added to both the apical and basolateral side to stimulate CFTR. An increase in chloride current is seen as an upward deflection of the trace.
The raw data, current vs. time for the Ussing chamber (sampling interval: 10 s) and voltage vs. time and resistance vs. time for the equivalent current assay (sampling interval: 5 minutes) were transferred to Excel (Microsoft Office Professional, version 14.0.7106.5003) for analysis. […] This average is equivalent to the sum of the average forskolin activated and the average VX770-potentiated currents. The average current measured in vehicle (0.1% DMSO) treated cells, Iv, was subtracted from the current for the test article, ITA, or from the corrector reference standard VX809 (3 uM ISTD). For replicate measurements, the average vehicle subtracted response for the test article, was normalized to the average vehicle subtracted inhibitor response of the reference corrector VX809 (3 μM).
A second endpoint, for the equivalent current assay, evaluated was NAUC, the normalized area under the curve (AUC) measuring the response after addition of forskolin and VX770 to the time point right before the addition of the CFTR inhibitor. The AUC is effectively the average response multiplied by the duration of the response.
NAUCTA=[AUCTA−AUCV,ave]/[AUCVx809r,ave−AUCV,ave] (Equation 2).
Experiments were run with a minimum of n=4 replicates per concentration. Since the distribution for the ratio of two normal distributions is a Cauchy distribution, the median value must be used for the average and the average deviation must be used for the error of all normalized data.
E=Emin+(Emax−Emin)/(1+10^((LogEC5OS)*nH)) (Equation 3)

[1] = test compound 3 μM in combination with 1st site corrector VX-809 (3 μM)
[2] = test compound 1 μM in combination with 1st site corrector VX-809 (3 μM)

T1 sequence (P13569 with tags, fused parts or gaps DEL508-508): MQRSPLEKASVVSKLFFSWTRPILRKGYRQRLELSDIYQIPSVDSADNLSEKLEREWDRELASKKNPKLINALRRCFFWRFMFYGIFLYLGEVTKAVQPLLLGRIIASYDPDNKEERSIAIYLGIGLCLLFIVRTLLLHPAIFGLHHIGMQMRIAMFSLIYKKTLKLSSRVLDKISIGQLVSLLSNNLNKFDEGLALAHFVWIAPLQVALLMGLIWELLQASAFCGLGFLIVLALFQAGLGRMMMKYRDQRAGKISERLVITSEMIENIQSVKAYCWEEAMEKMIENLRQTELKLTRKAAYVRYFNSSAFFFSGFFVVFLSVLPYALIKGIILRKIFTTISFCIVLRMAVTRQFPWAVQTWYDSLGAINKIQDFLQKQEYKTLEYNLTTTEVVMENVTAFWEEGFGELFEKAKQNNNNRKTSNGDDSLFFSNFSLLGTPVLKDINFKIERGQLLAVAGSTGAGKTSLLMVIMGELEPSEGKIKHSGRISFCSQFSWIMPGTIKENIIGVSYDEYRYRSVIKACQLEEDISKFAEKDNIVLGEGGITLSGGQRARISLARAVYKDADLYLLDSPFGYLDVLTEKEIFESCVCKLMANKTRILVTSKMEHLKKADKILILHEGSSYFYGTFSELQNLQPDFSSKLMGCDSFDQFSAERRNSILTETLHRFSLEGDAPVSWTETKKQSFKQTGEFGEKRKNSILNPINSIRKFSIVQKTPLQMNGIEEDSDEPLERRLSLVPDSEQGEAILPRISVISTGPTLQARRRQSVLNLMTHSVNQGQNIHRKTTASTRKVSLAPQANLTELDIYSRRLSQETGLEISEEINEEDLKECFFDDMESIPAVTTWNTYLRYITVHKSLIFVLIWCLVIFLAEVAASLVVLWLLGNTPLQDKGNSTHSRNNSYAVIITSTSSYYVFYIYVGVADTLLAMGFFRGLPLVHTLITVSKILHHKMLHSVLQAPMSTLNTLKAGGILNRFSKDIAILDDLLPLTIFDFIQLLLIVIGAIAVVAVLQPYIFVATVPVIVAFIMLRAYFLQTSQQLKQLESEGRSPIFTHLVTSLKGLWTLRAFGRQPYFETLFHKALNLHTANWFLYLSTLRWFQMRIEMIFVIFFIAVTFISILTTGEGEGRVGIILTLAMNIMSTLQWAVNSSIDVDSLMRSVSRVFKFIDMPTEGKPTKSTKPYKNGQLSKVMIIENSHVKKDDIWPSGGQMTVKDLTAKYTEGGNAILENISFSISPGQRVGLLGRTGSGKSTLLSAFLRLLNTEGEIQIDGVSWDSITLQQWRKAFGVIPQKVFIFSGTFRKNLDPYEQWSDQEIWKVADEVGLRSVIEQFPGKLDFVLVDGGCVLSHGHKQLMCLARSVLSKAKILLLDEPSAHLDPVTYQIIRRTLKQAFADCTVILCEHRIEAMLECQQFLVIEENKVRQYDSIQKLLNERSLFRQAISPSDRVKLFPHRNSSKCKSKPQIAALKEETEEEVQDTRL

## CC(C)(C)c1cccc(CCNC(=O)C2C3CC(F)(F)CN3C3(C(=O)Nc4c(Cl)cc(Cl)cc43)C2C(=O)O)c1 (racemic) [Example 44, (1′R,2′S,3R,7a′R)-1′-((3-(tert-butyl)phenethyl)carbamoyl)-5,7-dichloro-6′,6′-difluoro-2-oxo-1′,2′,5′,6′,7′,7a′-hexahydrospiro[indoline-3,3′-pyrrolizine]-2′-carboxylic acid]
[1]
  Nauc @ 3 μM: +++ (NAUC “+++” refers to an observed NAUC>170% of positive control)
  Nauc @ 10 μM: +++ (NAUC “+++” refers to an observed NAUC>170% of positive control)

## CN(C(=O)[C@H]1[C@H]2CC(F)(F)CN2[C@]2(C(=O)Nc3c2ccc(Cl)c3Cl)[C@H]1C(=O)O)c1cc(Cl)cc(Cl)c1 (racemic) [Example 100, rac-(1′R,2′S,7a′R)-6,7-dichloro-1-((3,5-dichlorophenyl)(methyl)carbamoyl)-6′,6′-difluoro-2-oxo-1′,2′,5′,6′,7′,7a′-hexahydrospiro[indoline-3,3′-pyrrolizine]-2′-carboxylic acid]
[2]
  Nauc @ 1 μM: + (NAUC “+” refers to an observed NAUC <140% of positive control)
[1]
  Nauc @ 3 μM: + (NAUC “+” refers to an observed NAUC <140% of positive control)
  Nauc @ 10 μM: + (NAUC “+” refers to an observed NAUC <140% of positive control)

## CN(C(=O)[C@H]1[C@H]2CCCCN2[C@]2(C(=O)Nc3c(Cl)cc(Cl)cc32)[C@H]1C(=O)O)c1cc(Cl)cc(Cl)c1 (racemic) [Example 219, rac-(1′R,2′S,3R,8a′R)-5,7-dichloro-1′-((3,5-dichlorophenyl)(methyl)carbamoyl)-2-oxo-1′,5′,6′,7′,8′,8a′-hexahydro-2′H-spiro[indoline-3,3′-indolizine]-2′-carboxylic acid]
Test compound 1 μM in combination with 1st site corrector FDL169 (3 μM)
  Nauc @ 1 μM: ++ (NAUC “++” refers to an observed NAUC 170-140% of positive control)
Test compound 3 μM in combination with 1st site corrector FDL169 (3 μM)
  Nauc @ 3 μM: + (NAUC “+” refers to an observed NAUC <140% of positive control)

## CN(C(=O)[C@H]1[C@H]2CC(F)(F)CN2C2(C(=O)Nc3c(Cl)cc(Cl)cc32)[C@H]1C(=O)NS(=O)(=O)c1ccccc1)c1cc(Cl)cc(Cl)c1 (mixture of isomers) [Example 230, rel-(1′R,2′S,3R,7a′R)-5,7-dichloro-N1′-(3,5-dichlorophenyl)-6′,6′-difluoro-N1′-methyl-2-oxo-N2′-(phenylsulfonyl)-1′,2′,5′,6′,7′,7a′-hexahydrospiro[indoline-3,3′-pyrrolizine]-1′,2′-dicarboxamide]
  Nauc @ 10 μM: + (NAUC “+” refers to an observed NAUC <140% of positive control)

## Cc1oc(=O)oc1COC(=O)[C@H]1[C@@H](C(=O)N(C)c2cc(Cl)cc(Cl)c2)[C@H]2CC(F)(F)CN2C12C(=O)Nc1c(Cl)cc(Cl)cc12 (mixture of isomers) [Example 250.3a, rac-(5-methyl-2-oxo-1,3-dioxo1-4-yl)methyl (1′R,2′S,3R,7a′R)-5,7-dichloro-1-((3,5-dichlorophenyl)(methyl)carbamoyl)-6′,6′-difluoro-2-oxo-1′,2′,5′,6′,7′,7a′-hexahydrospiro[indoline-3,3′-pyrrolizine]-2′-carboxylate]
  Nauc @ 10 μM: +++ (NAUC “+++” refers to an observed NAUC>170% of positive control)

## Cc1oc(=O)oc1COC(=O)[C@H]1[C@@H](C(=O)N(C)c2cc(Cl)cc(Cl)c2)[C@H]2CC(F)(F)CN2C12C(=O)N(Cc1oc(=O)oc1C)c1c(Cl)cc(Cl)cc12 (mixture of isomers) [Example 250.3b, rac-(5-methyl-2-oxo-1,3-dioxo1-4-yl)methyl (1′R,2′S,3R,7a′R)-5,7-dichloro-1′-((3,5-dichlorophenyl)(methyl)carbamoyl)-6′,6′-difluoro-1-45-methyl-2-oxo-1,3-dioxol-4-yl)methyl)-2-oxo-1′,2′,5′,6′,7′,7a′-hexahydrospiro[indoline-3,3′-pyrrolizine]-2′-carboxylate]
  Nauc @ 10 μM: + (NAUC “+” refers to an observed NAUC <140% of positive control)

## CN(C(=O)[C@H]1[C@H]2CC(F)(F)CN2[C@]2(C(=O)Nc3c(Cl)cc(Cl)cc32)[C@H]1C(=O)OCOC(=O)C(C)(C)C)c1cc(Cl)cc(Cl)c1 (racemic) [Example 251a, rac-(pivaloyloxy)methyl (1′R,2′S,3R,7a′R)-5,7-dichloro-1-((3,5-dichlorophenyl)(methyl)carbamoyl)-6′,6′-difluoro-2-oxo-1′,2′,5′,6′,7′,7a′-hexahydrospiro[indoline-3,3′-pyrrolizine]-2′-carboxylate]
  Nauc @ 10 μM: + (NAUC “+” refers to an observed NAUC <140% of positive control)

## CN(C(=O)[C@H]1[C@H]2CC(F)(F)CN2[C@]2(C(=O)N(COC(=O)C(C)(C)C)c3c(Cl)cc(Cl)cc32)[C@H]1C(=O)OCOC(=O)C(C)(C)C)c1cc(Cl)cc(Cl)c1 (racemic) [Example 251c, rac-(pivaloyloxy)methyl (1′R,2′S,3R,7a′R)-5,7-dichloro-1-((3,5-dichlorophenyl)(methyl)carbamoyl)-6′,6′-difluoro-2-oxo-1-((pivaloyloxy)methyl)-1′,2′,5′,6′,7′,7a′-hexahydrospiro[indoline-3,3′-pyrrolizine]-2′-carboxylate]
  Nauc @ 10 μM: + (NAUC “+” refers to an observed NAUC <140% of positive control)

## CC(=O)OCOC(=O)[C@H]1[C@@H](C(=O)N(C)c2cc(Cl)cc(Cl)c2)[C@H]2CC(F)(F)CN2C12C(=O)Nc1c(Cl)cc(Cl)cc12 (mixture of isomers) [Example 257, acetoxymethyl (1′R,2′S,3R,7a′R)-5,7-dichloro-1-((3,5-dichlorophenyl)(methyl)carbamoyl)-6′,6′-difluoro-2-oxo-1′,2′,5′,6′,7′,7a′-hexahydrospiro[indoline-3,3′-pyrrolizine]-2′-carboxylate]
  Nauc @ 10 μM: +++ (NAUC “+++” refers to an observed NAUC>170% of positive control)

## CN(C(=O)[C@H]1[C@@H](C(F)(F)F)NC2(C(=O)N(C)c3c(Cl)cc(Cl)cc32)[C@H]1C(=O)O)c1cc(Cl)cc(Cl)c1 (mixture of isomers) [Example 271, rac-(3′S,4′R,5′S)-5,7-dichloro-4′-((3,5-dichlorophenyl)(methyl)carbamoyl)-1-methyl-2-oxo-5′-(trifluoromethyl)spiro[indoline-3,2′-pyrrolidine]-3′-carboxylic acid]
[2]
  Nauc @ 1 μM: + (NAUC “+” refers to an observed NAUC <140% of positive control)
[1]
  Nauc @ 3 μM: +++ (NAUC “+++” refers to an observed NAUC>170% of positive control)
  Nauc @ 10 μM: + (NAUC “+” refers to an observed NAUC <140% of positive control)

## CC(C)(C)c1cccc(C(C)(C)CNC(=O)[C@H]2[C@H]3CC(F)(F)CN3[C@]3(C(=O)Nc4c(Cl)cc(Cl)cc43)[C@H]2C(=O)O)c1 (racemic) [Example 288b, rac-(1′R,2′S,3R,7a′R)-1′-((2-(3-(tert-butyl)phenyl)-2-methylpropyl)carbamoyl)-5,7-dichloro-6′,6′-difluoro-2-oxo-1′,2′,5′,6′,7′,7a′-hexahydrospiro[indoline-3,3′-pyrrolizine]-2′-carboxylic acid]
  Nauc @ 10 μM: + (NAUC “+” refers to an observed NAUC <140% of positive control)

## CN(C(=O)[C@H]1[C@H]2CC(F)(F)CN2[C@]2(C(=O)Nc3c(Cl)cc(Cl)cc32)[C@H]1C(=O)NS(C)(=O)=O)c1cc(Cl)cc(Cl)c1 (relative stereo) [Example 231, rel-(1′R,2′S,3R,7a′R)-5,7-dichloro-N1′-(3,5-dichlorophenyl)-6′,6′-difluoro-N1′-methyl-N2′-(methylsulfonyl)-2-oxo-1′,2′,5′,6′,7′,7a′-hexahydrospiro[indoline-3,3′-pyrrolizine]-1′,2′-dicarboxamide]
  Nauc @ 10 μM: + (NAUC “+” refers to an observed NAUC <140% of positive control)

Reference: patent US20230055237A1, “COMPOUNDS AND METHODS FOR THE TREATMENT OF CYSTIC FIBROSIS” (Flatley Discovery Lab, LLC, priority 2019, published 2023)
